EC50 data for one compound are collected here from BindingDB's records for doi:10.1021/jm051064t (P. Angeletti S.P.A. (Merck Research Laboratories), 2006).

The nature of the assay: Inhibition of replication of HCV 1b BK RNA in Huh7 cells.

Turning to `O=C(NCc1ccccc1Cl)Nc1ccsc1-c1nc(C(=O)O)c(O)c(=O)[nH]1` [2-(3-(3-(2-chlorobenzyl)ureido)thiophen-2-yl)-5,6-dihydroxypyrimidine-4-carboxylic acid], the EC50 worked out at 3.1 µM.

What is called EC50 is the concentration at which the effect is half-maximal. A lower EC50 goes with a more potent agent.
